Source: ChEMBL document CHEMBL5441456, “ASAP - SARS-CoV-2 nsp3 macrodomain dose response” (2024)
Where “and” joins values, the source holds several entries; their conditions need not be identical. Equal values may be shown once.

What was measured:
[1] = molecular target: T1, Replicase polyprotein 1ab (Severe acute respiratory syndrome coronavirus 2, UniProt P0DTD1); assay: Functional biochemical assay to identify treatments for viral infectious disease that targets SARS-COV-2 nsp3 macrodomain, whereby the mechanism of action displaces an ADP-Ribose modified peptide from the binding site. Utilizing a time-resolved fluorescence method to measure binding by reading the emitted fluorescence intensity in two wavelengths.
[2] = molecular target: T1, Replicase polyprotein 1ab; assay: Functional biochemical assay to identify treatments for viral infectious disease that targets SARS-COV-2 nsp3 macrodomain, whereby the mechanism of action inhibits ADP-Ribose hydrolase activity. Utilizing an enzymatic assay to monitor the conversion of alpha-NAD+ to ADP-Ribose and nicotinamide. ADP-ribose was quantified by LC-MS/MS after precipitation of proteins.

| Structure (SMILES) | IC50 [1] | IC50 [2] |
| --- | --- | --- |
| CC(C)(C)[C@@H](Nc1ncnc2[nH]c(-c3cnn(CC(N)=O)c3)cc12)c1ccc2c(n1)OCCO2 | 82 nM and 64 nM and 54 nM | 203 nM |
| CNCc1cc(-c2cc3c(N[C@@H](c4ccc5c(c4)S(=O)(=O)CCC5)C(C)C)ncnc3[nH]2)co1 | 25 nM and 41 nM and 22 nM and 19 nM (2×) and 12 nM | 289 nM and 396 nM and 533 nM |
| CC(C)[C@H](Nc1ncnc2[nH]ccc12)c1ccc2c(c1)S(=O)(=O)CCC2 | 93 nM and 138 nM and 85 nM | 803 nM and 194 nM and 512 nM |
| C[C@H](C(=O)O)[C@@H](NC(=O)c1ncnc2[nH]ccc12)c1ccc(Br)cc1 | 794 nM and 622 nM and 340 nM | 1340 nM and 1900 nM and 1800 nM |
| CNC(=O)Cn1cc(-c2cc3c(N[C@@H](c4ccc5c(c4)S(=O)(=O)CCC5)C(C)C)ncnc3[nH]2)cn1 | 35 nM and 19 nM and 30 nM and 18 nM and 16 nM and 15 nM and 10 nM | 204 nM and 197 nM and 288 nM |
| CC(C)[C@H](Nc1ncnc2[nH]c(-c3cnn(C)c3C#N)cc12)c1ccc2c(n1)OCCO2 | 19300 nM and 19100 nM and 30800 nM and 19000 nM | > 4000 nM |
| COc1ccc([C@H](Cc2nnn[nH]2)NC(=O)c2ncnc3[nH]ccc23)cc1 | 349 nM and 319 nM | 2340 nM and 1490 nM and 1610 nM |
| CC(C)[C@@H](Nc1ncnc2[nH]c(C(=O)N[C@@H]3CCN(C)C3)cc12)c1ccc2c(c1)S(=O)(=O)CCC2 | 65 nM and 66 nM and 72 nM and 58 nM | 479 nM and 316 nM and 454 nM |
| CC(C)[C@@H](Nc1ncnc2[nH]c(-c3cnn(C)c3C#N)cc12)c1ccc2c(n1)OCCO2 | 68 nM and 74 nM and 40 nM and 29 nM and 59 nM and 67 nM | 283 nM and 156 nM and 312 nM |
| Cc1nn(C)cc1-c1cc2c(N[C@H](c3ccc4c(c3)S(=O)(=O)CCC4)C(C)C)ncnc2[nH]1 | 28 nM (3×) and 14 nM and 32 nM and 13 nM and 24 nM and 36 nM and 12 nM and 11 nM | 322 nM and 241 nM and 288 nM |
| CC(C)[C@@H](Nc1ncnc2[nH]ccc12)c1ccc2c(c1)NC(=O)CO2 | 700 nM and 722 nM and 396 nM and 378 nM | 2960 nM |
| Cn1ncc(-c2cc3c(N[C@@H](c4ccc5c(n4)OCCO5)C(C)(C)C)ncnc3[nH]2)c1C#N | 46 nM and 30 nM (2×) and 20 nM | 133 nM and 191 nM and 235 nM |
| CC(C)[C@@H](Nc1ncnc2[nH]c(-c3cnn(C)c3)cc12)c1ccc2c(c1)S(=O)(=O)CCC2 | 36 nM and 54 nM and 19 nM and 34 nM (2×) and 17 nM and 29 nM and 27 nM and 35 nM and 15 nM | 328 nM and 264 nM |
| CNC(=O)c1c[nH]c2ncnc(N[C@H](c3ccc4c(c3)S(=O)(=O)CCC4)C(C)C)c12 | 120 nM and 110 nM | 246 nM |
| O=C(O)[C@H]1C[C@@H](F)CN1c1ncnc2[nH]ccc12 | > 99500 nM |  |
| CCNC(=O)c1cc2c(N[C@H](c3ccccc3N(C)S(C)(=O)=O)C(C)C)ncnc2[nH]1 | > 99500 nM |  |
| CNC(=O)c1cc2c(N[C@@H](c3ccc4c(c3)S(=O)(=O)CCC4)C(C)C)ncnc2[nH]1 | 52 nM (2×) and 78 nM and 24 nM and 48 nM and 38 nM and 35 nM and 60 nM |  |
| Cc1ncc(CNC(=O)c2cc3c(N[C@@H](c4ccc5c(c4)OCCO5)C(C)C)ncnc3[nH]2)o1 | 695 nM and 623 nM |  |
| CC(C)[C@@H](Nc1ncnc2[nH]ccc12)c1ccc2nn[nH]c2c1 | 3500 nM and 4100 nM and 4030 nM |  |
| Cc1ccc(-c2cc3c(N[C@@H](c4ccc5c(c4)OCCO5)C(C)C)ncnc3[nH]2)o1 | 40600 nM and 37600 nM |  |
| Cc1c(-c2cc3c(N[C@@H](c4ccc5c(c4)OCCO5)C(C)C)ncnc3[nH]2)cnn1C | 639 nM and 701 nM |  |
| O=C(O)C[C@@H](CNC(=O)c1ncnc2[nH]ccc12)c1ccc(Cl)cc1 | 65300 nM and 71300 nM |  |
| CC(C)[C@@H](Nc1ncnc2[nH]c(-c3ccc(CC#N)cc3)cc12)c1ccc2c(c1)OCCO2 | 26400 nM and 28900 nM |  |
| CC(C)[C@@H](Nc1ncnc2[nH]c(C(=O)NC34CC(C#N)(C3)C4)cc12)c1ccc2c(c1)OCCO2 | 1360 nM and 1930 nM |  |
| CC(C)c1n[nH]cc1-c1cc2c(N[C@@H](c3ccc4c(c3)OCCO4)C(C)C)ncnc2[nH]1 | 2010 nM and 2070 nM |  |

| Structure (SMILES) | IC50 [1] | IC50 [2] |
| --- | --- | --- |
| CC(C)[C@H](Nc1ncnc2[nH]ccc12)C(=O)O | 34100 nM and 33800 nM |  |
| CC(C)[C@@H](Nc1ncnc2[nH]c(C(=O)N(C)C)cc12)c1ccc2c(c1)OCCO2 | 21900 nM and 18900 nM |  |
| Cc1nnc(Nc2ccc([C@@H](CC(=O)O)NC(=O)c3ncnc4[nH]ccc34)cc2)o1 | 12200 nM and 10100 nM |  |
| O=C(Nc1ccc(C(=O)N[C@@H]2c3ccccc3C[C@@H]2C(=O)O)cc1)c1ccc(N2CCC(O)CC2)cc1 | > 99500 nM |  |
| Cc1nnc(Nc2ccc(C(=O)N[C@@H]3c4cccc(O)c4C[C@@H]3C(=O)O)cc2)o1 | 7160 nM and 7380 nM |  |
| CC(C)[C@@H](Nc1ccnc2nccn12)c1ccc2c(c1)S(=O)(=O)CCC2 | > 99500 nM |  |
| CC(C)[C@@H](Nc1ncnc2[nH]c(-c3cnc4c(c3)CC(=O)N4)cc12)c1ccc2c(c1)OCCO2 | 1300 nM and 1510 nM |  |
| CC(C)(C)[C@@H](Nc1ncnc2[nH]ccc12)c1ccc2c(c1)OCCO2 | 1230 nM and 1060 nM |  |
| C[C@@H](Nc1ncnc2[nH]ccc12)[C@@H]1CCS(=O)(=O)C1 | > 99500 nM |  |
| Cc1[nH]c2ncnc(NC(=O)C3CC(C(F)(F)F)C3)c2c1C (stereo not drawn) | > 99500 nM |  |
| CC(C)[C@@H](Nc1ncnc2[nH]ccc12)c1ccc2c(c1)SCCO2 | 1870 nM and 1940 nM |  |
| COc1ccc(C(=O)Nc2ccc(C(=O)N[C@@H]3c4ccccc4C[C@@H]3C(=O)O)cc2)cc1S(=O)(=O)NCCN1CCCC1 | > 99500 nM |  |
| CC(C)[C@@H](NC(=O)c1c[nH]c2c(NC(=O)NC3CC3)cccc12)C(F)F | > 99500 nM |  |
| FC(F)[C@@H](Nc1ncnc2[nH]ccc12)c1ccc2c(c1)OCCO2 | 16000 nM and 22800 nM |  |
| Cc1n[nH]c(C)c1C(=O)N1CCC(c2ccn3ncc(C(=O)N4CCCCC4)c3c2)CC1 | > 99500 nM |  |
| O=C(O)C[C@@H](NC(=O)c1nccc2cc[nH]c12)c1ccc(Br)cc1 | 29600 nM and 31200 nM |  |
| CCNC(=O)c1cc2c(N[C@@H](c3ccc4c(c3)S(=O)(=O)CCO4)C(C)C)ncnc2[nH]1 | 33 nM and 64 nM and 52 nM and 90 nM and 50 nM and 73 nM |  |
| CC(C)[C@@H](Nc1ncnc2[nH]cc(C(=O)NC3CC3)c12)c1ccc2c(c1)S(=O)(=O)CCC2 | 260 nM and 145 nM and 150 nM |  |
| CCNC(=O)c1cc2c(N[C@@H](c3ccc4c(c3)S(=O)(=O)NCC4)C(C)C)ncnc2[nH]1 | 124 nM and 117 nM and 95 nM and 197 nM |  |
| CC(C)[C@H](Nc1ncnc2[nH]c(-c3cnn(CC(N)=O)c3)cc12)c1ccc2c(c1)NC(=O)CO2 | > 99500 nM |  |
| Cc1[nH]c2ncnc(NC(=O)c3ccc(-n4cccc4)nc3)c2c1C | > 99500 nM |  |
| O=C(O)c1cnc(C(=O)N2CCC(c3ccn4ncc(C(=O)N5CCCCC5)c4c3)CC2)cn1 | > 99500 nM |  |
| CCCn1nccc1-c1cc2c(N[C@@H](c3ccc4c(c3)OCCO4)C(C)C)ncnc2[nH]1 | 2190 nM and 2450 nM and 2620 nM |  |
| CC(C)[C@@H](Nc1ncnc2[nH]c(-c3cnn(C)c3)cc12)c1ccc2c(c1)S(=O)(=O)NCC2 | 71 nM and 57 nM |  |
